# From PMC6278399, “Synthesis and Anticancer Activity Evaluation of Hydrolyzed Derivatives of Panaxnotoginseng Saponins” (Molecules, 2018)
# Tests used:
# [1] = system: cervical cancer cells (Hela); assay: MTT cytotoxicity assay, Hela; assay type: cell-based, human; details: Homo sapiens, 48 h
# Text: (§1) In the study, five cancer cell lines (human colon cancer cells (HT-29), gastric cancer cells (BGC-823), cervical cancer cells (Hela), human breast cancer cells (MCF-7), and human lung cancer cells A549)), and two normal cell lines (human gastric epithelial cells (GES-1) and human ovarian epithelial cells (IOSE144)) were used for the evaluation of biological activity. IOSE144 cells were donated by Professor Piao Huri of Yanbian University, all other cells were purchased from the American Type Culture Collection (ATCC, Manassas, VA, USA). Cells were cultured in Dulbecco’s Modified Eagle’s Medium (DMEM), supplemented with 10% heat-inactivated fetal bovine serum (FBS), 1% 100 μg/mL penicillin and 100 μg/mL streptomycin in a humidified atmosphere containing 5% CO2 at 37 °C. Cell viability was measured using the MTT assay. Cells were seeded in 96 well microtiter plates in a volume of 100 μL medium. All compounds tested were dissolved and further diluted in DMSO. After overnight incubation, cells were treated with different test concentrations or carrier solvents alone in a final volume of 100 μL with five replicates each. […] Cells were treated with compound (80, 40, 20, 10, 5 μM) for 48 h. Then, 10 μL of MTT (5 mg/mL) was added to each well and the cells were incubated at 37 °C in the dark for 4 h. Supernatants were removed and formazan crystals were dissolved in DMSO (100 μL/well). The solution was agitated for 10 min, and the absorbance was measured at 490 nm using microplate reader (imark, BIO-RAD, Hercules, CA, USA) to calculate the 50% inhibitory concentration (IC50). Ginsenoside-Rg3, panaxadiol sapogenin (PD), AD-2 (25-OH-PPD) and AD-1 (25-OCH3-PPD) were used as standard reference compounds.
# [2] = MTT cytotoxicity assay, GES-1 normal cells; assay type: cell-based, human; details: human
# Text: as §1
# [3] = system: gastric cancer cells (BGC-823); assay: MTT cytotoxicity assay, BGC-823; assay type: cell-based, human; details: Homo sapiens; BGC-823, MTT, 48 h
# Text: as §1
# [4] = system: human lung cancer cells A549; assay: MTT cytotoxicity assay, A549; assay type: cell-based; details: Homo sapiens, 48 h
# Text: as §1
# [5] = MTT cytotoxicity assay, IOSE144 normal cells; assay type: cell-based, human; details: human
# Text: as §1
# [6] = system: human colon cancer cells (HT-29); assay: MTT cytotoxicity assay, HT-29; assay type: cell-based; details: Homo sapiens; HT-29, MTT, 48 h
# Text: as §1
# [7] = system: human breast cancer cells (MCF-7); assay: MTT cytotoxicity assay, MCF-7; assay type: cell-based; details: Homo sapiens, MCF7; MCF-7, MTT, 48 h
# Text: as §1
# [8] = GES-1 gastric epithelial cells (normal cell line), GES-1 normal cells, MTT, 48 h, read-out: IC50
# [9] = IOSE144 ovarian epithelial cells (normal cell line), IOSE144 normal cells, MTT, 48 h, read-out: IC50
SMILES,IC50 [1] [µM],IC50 at 48 h [2] [µM],IC50 [3] [µM],IC50 [4] [µM],IC50 at 48 h [5] [µM],IC50 [6] [µM],melting point [°C],IC50 [7] [µM],"IC50 at 48 h [2, 8] [µM]","IC50 at 48 h [5, 9] [µM]"
"CC(=O)OC1CC2C3(C)CCC(OC(=O)c4ccccc4O)C(C)(C)C3CCC2(C)C2(C)CCC(C(C)(O)CCCC(C)(C)O)C12 [Compound 6b, 20(R)-Dammarane-20,25-diol-12β-o-acetyl-3β-yl-2′-hydroxybenzoate]",48.3 ± 2.16,> 100,40.6 ± 1.05,> 100,> 100,15.2 ± 0.41,278 to 280,> 100,–,–
"COC(C)(C)CCCC(C)(O)C1CCC2(C)C1C(O)CC1C3(C)CCC(OC(=O)c4ccccc4O)C(C)(C)C3CCC12C [Compound 4a, 20(R)-25-Methoxydammarane-12β,20-diol-3β-yl-2′-hydroxybenzoate]",19.26 ± 0.14,> 100,13.2 ± 0.18,35.6 ± 0.56,> 100,50.6 ± 1.03,246 to 248,11.1 ± 0.35,–,–
"O=C(O)c1ccccc1O [Salicylic acid, reference compound]",> 100,–,> 100,> 100,–,83.2 ± 1.65,–,> 100,> 100,> 100
"CC(C)(O)CCCC(C)(O)C1CCC2(C)C1C(O)CC1C3(C)CCC(OC(=O)c4ccccc4O)C(C)(C)C3CCC12C [Compound 9a, 20(R)-Dammarane-12β,20,25-triol-3β-yl-2′-hydroxybenzoate]",37.3 ± 0.39,> 100,26.52 ± 0.26,35.9 ± 0.41,> 100,11.5 ± 0.23,295 to 297,50.44 ± 0.11,–,–
"CC(=O)Oc1ccccc1C(=O)O [Acetyl-salicylic acid, reference compound]",> 100,–,87.67 ± 0.78,90.5 ± 2.13,–,70.26 ± 0.38,–,57.1 ± 1.7,> 100,> 100
"CC1(C)CCC[C@](C)(C2CC[C@]3(C)C2[C@H](OC(=O)c2ccccc2O)CC2[C@@]4(C)CC[C@H](OC(=O)c5ccccc5O)C(C)(C)C4CC[C@]23C)O1 (stereo partly drawn) [Compound 10a, 20(R)-Pananxadiol-3β,12β-di-yl-2′-hydroxybenzoate]",> 100,> 100,> 100,29.5 ± 0.61,> 100,30.25 ± 0.02,232 to 234,41.4 ± 0.48,–,–
"CC(=O)Oc1ccccc1C(=O)OC1CCC2(C)C(CCC3(C)C2CC(OC(C)=O)C2C(C(C)(O)CCCC(C)(C)O)CCC23C)C1(C)C [Compound 7b, 20(R)-Dammarane-20,25-diol-12β-o-acetyl-3β-yl-2′-acetylbenzoate]",19.53 ± 0.19,> 100,18.4 ± 0.35,28.4 ± 0.95,> 100,28.6 ± 0.65,268 to 270,22.6 ± 1.02,–,–
"CC1(C)CCC[C@](C)(C2CC[C@]3(C)C2[C@H](O)CC2[C@@]4(C)CC[C@H](OC(=O)c5ccccc5O)C(C)(C)C4CC[C@]23C)O1 (stereo partly drawn) [Compound 11a, 20(R)-Pananxadiol-12β-hydroxy-3β-yl-2′-hydroxybenzoate]",> 100,> 100,41.9 ± 0.43,23.8 ± 1.36,> 100,26.5 ± 0.56,222 to 224,11.5 ± 1.47,–,–
"CC1(C)CCC[C@](C)([C@H]2CC[C@]3(C)[C@@H]2[C@H](O)C[C@@H]2[C@@]4(C)CC[C@H](O)C(C)(C)[C@@H]4CC[C@]23C)O1 [PD, panaxadiol, reference compound]",72.15 ± 0.52,–,80.13 ± 0.36,43.1 ± 1.05,–,73.4 ± 1.84,–,62 ± 1.63,> 100,> 100
